According to paper PMC9061822, “A novel SRSF3 inhibitor, SFI003, exerts anticancer activity against colorectal cancer by modulating the SRSF3/DHCR24/ROS axis” (Cell Death Discovery, 2022):
Where a SMILES comes first, the peptide text is derived from it. The star is where a group is joined. Cbz = O=C(OCc1ccccc1)*

Experiments:
SRSF3 [1] = target: T1, SRSF3 (Homo sapiens, UniProt P84103); assay: Western blot of SRSF3 protein in HCT-116 and SW480 cells; type: cell-based; parameters: endogenous in cells; host or cells: HCT-116 and SW480; conditions: HCT-116 and SW480; 20 μM SFI003 plus 3 μM MLN4924, 50 μM CHQ or 10 μM MG132 for 12 h
T1 sequence (P84103 1-164): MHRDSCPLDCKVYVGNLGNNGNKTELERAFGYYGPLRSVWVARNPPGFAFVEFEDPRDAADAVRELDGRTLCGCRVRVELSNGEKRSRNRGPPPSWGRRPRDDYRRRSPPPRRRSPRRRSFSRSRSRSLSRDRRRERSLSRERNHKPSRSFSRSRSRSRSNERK
Protocol: (§1) After cell lysates were prepared, protein concentrations were determined by a BCA assay (TaKaRa, Kusatsu, Japan). Equal amounts of protein were separated by SDS–PAGE and transferred to polyvinylidene difluoride membranes. After normalization, the blots were probed with appropriate antibodies, as described previously.

HCT-116 xenografts = HCT-116 xenografts in SCID mice; type: in vivo; conditions: HCT-116 xenografts, 100 mg/kg orally, two weeks
Protocol: To explore the effect of SFI003 on the growth of CRC, approximately 3 × 10^6 HCT-116 cells or 8 × 10^6 SW480 cells were collected and mixed with Matrigel (Corning, NY, USA) at a 1:1 ratio by volume and then injected into the lower back region of mice. When tumors were palpable, mice were randomly divided into four groups. One group received vehicle as a control, while the other three groups were orally administered SFI003 at a dosage of 100 or 200 mg/kg or capecitabine at a dosage of 100 mg/kg for two continuous weeks. The tumor sizes and mouse body weights were monitored every other day. At the end of the experiment, tumors and blood samples were collected for further studies. The tumor size was evaluated according to Eq.: tumor size (mm^3) = (length × width^2) × 0.5.

SRSF3 [2] = target: T1, SRSF3; assay: Biological experimental assays of screened compounds against SRSF3; conditions: screening hit among 22 selected compounds
ROS = assay: Detection of ROS (DCFH-DA) in HCT-116 and SW480 cells; type: cell-based, Human; conditions: 20 μM SFI003 with 5 mM NAC or 100 μM Trolox, 72 h
Protocol: Following treatment with SFI003 or siRNA, the cells were washed with PBS and incubated with DCFH-DA for 20 min at 37 °C. After washing three times, the cells were collected and measured at 488 nm excitation and 525 nm emission by a microplate reader (Tecan, Switzerland) according to the manufacturer’s instructions (Beyotime, Shanghai, China). The protein concentrations were determined by using a BCA assay (TaKaRa, Kusatsu, Japan).

HCT-116 and SW480 cells = assay: WB of EMT and apoptosis markers with ROS scavengers; type: cell-based, Human; conditions: 20 μM SFI003 with 5 mM NAC or 100 μM Trolox, 72 h
Protocol: as §1

SW480 cells = assay: MTT assay in SW480 cells; type: cell-based, Human; conditions: Homo sapiens; SW480 cells, 72 h
Protocol: (§2) Human CRC cell lines were purchased from the American Type Culture Collection (VA, USA). HCT-116 cells were cultured in DMEM (HyClone, Utah, USA) containing 10% fetal bovine serum (FBS; Gibco, NY, USA). SW480 cells were cultured in RPMI 1640 medium (HyClone, Utah, USA) containing 10% FBS. All cells were cultured in an incubator (Thermo, CA, USA) at a constant temperature of 37 °C and 5% CO2. N-Acetylcysteine (NAC), Trolox, MLN4924, 5-Fu, and capecitabine were purchased from MedChemExpress LLC (Shanghai, China). MG132 was purchased from Santa Cruz Biotech (CA, USA). Chloroquine (CHQ) was purchased from Sigma (CA, USA). Rapamycin was purchased from Beyotime (Shanghai, China). Primary antibodies against SRSF3 and E-Cadherin were purchased from Abcam (Cambridge, UK). Primary antibodies against N-Cadherin, Caspase 3, DHCR24, CAT, Akt and phospho-Akt (Ser473) were purchased from Cell Signaling Technology (MA, USA). Primary antibodies against β-actin, mTOR, and phospho-mTOR ([…]) were purchased from Beyotime (Shanghai, China). Primary antibody against Vimentin was purchased from Proteintech (Wuhan, China). Primary antibody against Bcl-2 was purchased from Santa Cruz Biotech (CA, USA). Primary antibody against Flag was purchased from MBL Beijing Biotech (Beijing, China). CRC cells were transfected with 100 nM siRNA or treated with various doses of SFI003 for 24 h, 48 h, or 72 h before being subjected to MTT assay as described previously.

HCT-116 cells = assay: MTT assay in HCT-116 cells; type: cell-based, Human; conditions: Homo sapiens; HCT-116 cells, 72 h
Protocol: as §2

Q: With CC(C)C[C@@H](C=O)NC(=O)[C@H](CC(C)C)NC(=O)[C@H](CC(C)C)NC(=O)OCc1ccccc1 [MG132] (Cbz-Leu-Leu-Leu-aldehyde) as the compound, how does the “effect on SFI003-induced SRSF3 degradation” value (SRSF3 [1]) read?
A: The value was “rescued”.

Q: Which “number of tumors that disappeared” value (HCT-116 xenografts) does the source give for CCCCCOC(=O)Nc1nc(=O)n([C@@H]2O[C@H](C)[C@@H](O)[C@H]2O)cc1F [capecitabine, reference compound] here?
A: The value was “one”.

Q: For C/C(=N\Nc1nc(-c2ccc(O)cc2)cs1)C1=CSCN1 [compound 6], which “inhibitory activity against SRSF3” value (SRSF3 [2]) is on record?
A: The value was “satisfactory inhibitory activity”.

Q: Cc1c(C)c2c(c(C)c1O)CCC(C)(C(=O)O)O2 (stereo not shown) [Trolox] was tested. Which “effect on SFI003-induced ROS” value (ROS) did it give?
A: The value was “significantly reversed”.

Q: What about the “effect on SFI003-induced apoptosis and migration disability” value (HCT-116 and SW480 cells) of the same compound?
A: Its value is “reversed”.

Q: With NS(=O)(=O)OC[C@@H]1C[C@@H](n2ccc3c(N[C@H]4CCc5ccccc54)ncnc32)C[C@@H]1O [MLN4924] as the compound, how does the “effect on SFI003-induced SRSF3 degradation” value (SRSF3 [1]) read?
A: The value was “rescued”.

Q: How did the IC50 (SW480 cells) turn out when CO[C@H]1C[C@@H]2CC[C@@H](C)[C@@](O)(O2)C(=O)C(=O)N2CCCC[C@H]2C(=O)O[C@H]([C@H](C)C[C@@H]2CC[C@@H](O)[C@H](OC)C2)CC(=O)[C@H](C)/C=C(\C)[C@@H](O)[C@@H](OC)C(=O)[C@H](C)C[C@H](C)/C=C/C=C/C=C/1C [rapamycin, reference compound] was run?
A: The IC50 was 16.8 µM.

Q: And the IC50 (HCT-116 cells)?
A: Its IC50 is 33.2 µM.

Q: For CC(=O)N[C@@H](CS)C(=O)O [NAC, N-Acetylcysteine], which “effect on SFI003-induced ROS” value (ROS) is on record?
A: Its value is “significantly reversed”.

Q: And the “effect on SFI003-induced apoptosis and migration disability” value (HCT-116 and SW480 cells)?
A: Its value is “reversed”.
